Experimental data taken from patent US20240300943A1, “NOVEL SALTS OF HETEROCYCLIC COMPOUND AS PROTEIN KINASE INHIBITOR AND USES THEREOF” (HK INNO.N CORPORATION, priority 2021, published 2024).

Legend:
[1] = target: T1, JAK3 (Homo sapiens, UniProt P52333); assay: ADP-Glo JAK3 kinase assay; assay type: biochemical; conditions: read-out: IC50, In vitro enzyme JAK3
T1 sequence (P52333 1-1124): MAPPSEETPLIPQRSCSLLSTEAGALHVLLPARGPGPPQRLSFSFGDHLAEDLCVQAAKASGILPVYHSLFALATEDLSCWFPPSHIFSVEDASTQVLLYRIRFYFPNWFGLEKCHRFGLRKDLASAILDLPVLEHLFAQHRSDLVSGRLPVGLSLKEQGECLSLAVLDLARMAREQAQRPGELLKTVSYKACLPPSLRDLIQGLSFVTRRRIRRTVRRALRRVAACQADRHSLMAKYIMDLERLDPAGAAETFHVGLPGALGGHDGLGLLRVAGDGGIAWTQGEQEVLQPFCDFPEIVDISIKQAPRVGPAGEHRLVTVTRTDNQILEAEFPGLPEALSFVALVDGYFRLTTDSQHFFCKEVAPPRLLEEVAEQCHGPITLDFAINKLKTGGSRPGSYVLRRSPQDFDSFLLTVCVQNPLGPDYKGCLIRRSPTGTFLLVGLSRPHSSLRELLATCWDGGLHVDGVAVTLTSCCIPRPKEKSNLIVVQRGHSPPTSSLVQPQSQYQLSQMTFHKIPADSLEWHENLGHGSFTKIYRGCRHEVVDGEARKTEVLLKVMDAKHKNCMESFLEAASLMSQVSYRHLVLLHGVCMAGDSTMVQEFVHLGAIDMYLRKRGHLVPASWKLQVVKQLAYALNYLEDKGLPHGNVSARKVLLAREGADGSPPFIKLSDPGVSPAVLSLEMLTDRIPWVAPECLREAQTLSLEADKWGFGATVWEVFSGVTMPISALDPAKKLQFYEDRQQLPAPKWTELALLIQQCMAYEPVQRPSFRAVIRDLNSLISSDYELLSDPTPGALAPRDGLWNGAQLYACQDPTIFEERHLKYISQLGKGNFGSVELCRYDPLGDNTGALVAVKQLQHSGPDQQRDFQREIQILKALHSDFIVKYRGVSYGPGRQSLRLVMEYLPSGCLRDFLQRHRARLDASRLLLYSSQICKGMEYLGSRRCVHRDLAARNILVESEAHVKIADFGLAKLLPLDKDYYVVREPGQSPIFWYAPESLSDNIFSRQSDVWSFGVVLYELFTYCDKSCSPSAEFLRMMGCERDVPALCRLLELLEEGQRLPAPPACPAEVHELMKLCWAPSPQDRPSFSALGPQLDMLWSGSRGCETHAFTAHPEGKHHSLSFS
Method: 10 mM of Compound 1 was diluted in DMSO to prepare samples at four concentrations (50,000 nM, 5,000 nM, 500 nM and 50 nM). 10 mM of ATP was diluted at 1/40 in 1× kinase buffer to make a preparation. 1 mg/mL of Poly (Glu4, Tyr1) peptide was used as a stock solution. 100 ng/μL of JAK3 enzyme was diluted at 1/20 in 1× kinase buffer to make a preparation. 1 μL of ATP, 1 μL of Poly (Glu4, Tyr1) peptide, and 1 μL of Compound 1 prepared as above were mixed, after which 2 μL of JAK3 enzyme was finally added and reacted at 30° C. for 40 minutes. At this time, a tube without JAK3 enzyme was prepared as a blank and a tube without Compound 1 was prepared as a positive control group together (a final concentration of samples was 10,000 nM, 1,000 nM, 100 nM, and 10 nM).
Then, 5 μL of ADP-glo was added to each tube and reacted at 30° C. for 40 minutes, after which 10 μL of kinase detection reagent was added thereto and reacted at room temperature for 15 minutes. After 18 μL of the reactant was transferred to a 384 well plate, luminescence was measured using a plate reader.

[2] = target: JAK2 (Homo sapiens, UniProt O60674); assay: In vitro cell assay, JAK2 (STAT phosphorylation ELISA); assay type: cell-based; design: endogenous in cells; host or cells: UT-7/EPO (inferred); conditions: read-out: IC50, Cell Biology JAK2
Method: UT-7/EPO cell is an erythroleukemic cell line which expresses an EPO receptor, and is frequently used in many previous studies as a model to assess EPO-induced STAT5 phosphorylation mediated by JAK1 and JAK2 activity. Accordingly, in order to evaluate the activity of JAK1 and JAK2, UT-7/EPO cells were prepared.
The test material was dissolved in DMSO, prepared at 10 mM, divided by 20 μL each, and stored at −20° C.
• EPO: 2000 U/0.5 mL of stock was divided by 50 μL each and stored under refrigeration. • IL-2: 200 μg/ml of stock was prepared, divided by 5 μL each, and stored, and then treated at 2 ng/ml. (IL-2 1 μg/ml=13000 U/ml) • IFN-alphaB2: […] of stock was diluted and used, and then treated to reach 30000 U/ml.
• UT-7/EPO cell assay: MEM-alpha (Gibco, cat #12561-056) was prepared to contain 5% FBS and 1% P/S before use. • NK-92 cell assay: A preparation was made to contain HBSS, 1% FBS and 1% P/S before use. • U2OS cell assay: A preparation was made to contain HBSS, 1% FBS and 1% P/S before use.
The cultured cells were centrifuged (1,000 rpm, 5 minutes) and washed with PBS. The size of cell lines and appropriate reaction concentration thereof were set and the cell lines were seeded in a 96-well plate at 1×10^5 to 10^6 cells/well (50 μL/well). […]

Chain of JAK2 (O60674 whole entry, species assumed): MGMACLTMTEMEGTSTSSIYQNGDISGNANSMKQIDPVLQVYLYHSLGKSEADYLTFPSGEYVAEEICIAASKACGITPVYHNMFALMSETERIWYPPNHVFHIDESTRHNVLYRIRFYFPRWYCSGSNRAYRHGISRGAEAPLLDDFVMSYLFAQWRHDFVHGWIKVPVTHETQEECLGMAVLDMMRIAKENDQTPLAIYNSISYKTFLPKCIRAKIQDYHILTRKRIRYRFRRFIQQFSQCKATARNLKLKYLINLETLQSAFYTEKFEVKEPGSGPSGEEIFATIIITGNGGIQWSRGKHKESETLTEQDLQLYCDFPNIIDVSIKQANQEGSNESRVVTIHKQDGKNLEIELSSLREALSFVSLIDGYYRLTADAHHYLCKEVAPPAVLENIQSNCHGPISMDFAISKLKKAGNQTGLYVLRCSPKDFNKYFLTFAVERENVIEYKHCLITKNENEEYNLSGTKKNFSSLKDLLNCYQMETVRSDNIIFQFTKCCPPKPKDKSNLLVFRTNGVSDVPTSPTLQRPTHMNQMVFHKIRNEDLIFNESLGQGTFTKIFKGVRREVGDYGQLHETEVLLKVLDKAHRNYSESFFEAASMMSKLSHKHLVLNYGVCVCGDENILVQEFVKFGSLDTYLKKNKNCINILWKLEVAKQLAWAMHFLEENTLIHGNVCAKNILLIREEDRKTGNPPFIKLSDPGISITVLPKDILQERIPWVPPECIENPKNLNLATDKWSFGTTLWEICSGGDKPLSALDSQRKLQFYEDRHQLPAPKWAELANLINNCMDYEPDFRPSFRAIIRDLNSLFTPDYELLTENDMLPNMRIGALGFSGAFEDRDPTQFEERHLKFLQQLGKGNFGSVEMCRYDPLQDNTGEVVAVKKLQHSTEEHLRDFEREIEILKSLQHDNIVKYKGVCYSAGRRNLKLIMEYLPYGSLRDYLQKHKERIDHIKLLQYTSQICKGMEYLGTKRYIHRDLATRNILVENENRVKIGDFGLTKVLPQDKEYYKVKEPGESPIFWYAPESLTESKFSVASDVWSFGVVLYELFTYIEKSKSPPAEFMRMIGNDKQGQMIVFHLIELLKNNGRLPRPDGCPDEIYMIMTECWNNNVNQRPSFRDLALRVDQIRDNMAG

C[C@@H]1CN(C(=O)CC#N)CC=C1c1cc(NC(=O)C2CC2)nc2[nH]ccc12 [Compound 1, (S)—N-(4-(1-(2-cyanoacetyl)-3-methyl-1,2,3,6-tetrahydropyridin-4-yl)-1H-pyrrolo[2,3-b]pyridin-6-yl)cyclopropanecarboxamide]
IC50 [1]: 315 nM | IC50 [2]: 656 nM
